# Test results reported in publication PMC6657233 (Translational Oncology, 2019).
# Molecular target: T1, adenosine transporter (AT; NBMPR-sensitive equilibrative nucleoside transporter subtype, ENT) (Homo sapiens, UniProt Q99808)
# T1 sequence (Q99808 2-456): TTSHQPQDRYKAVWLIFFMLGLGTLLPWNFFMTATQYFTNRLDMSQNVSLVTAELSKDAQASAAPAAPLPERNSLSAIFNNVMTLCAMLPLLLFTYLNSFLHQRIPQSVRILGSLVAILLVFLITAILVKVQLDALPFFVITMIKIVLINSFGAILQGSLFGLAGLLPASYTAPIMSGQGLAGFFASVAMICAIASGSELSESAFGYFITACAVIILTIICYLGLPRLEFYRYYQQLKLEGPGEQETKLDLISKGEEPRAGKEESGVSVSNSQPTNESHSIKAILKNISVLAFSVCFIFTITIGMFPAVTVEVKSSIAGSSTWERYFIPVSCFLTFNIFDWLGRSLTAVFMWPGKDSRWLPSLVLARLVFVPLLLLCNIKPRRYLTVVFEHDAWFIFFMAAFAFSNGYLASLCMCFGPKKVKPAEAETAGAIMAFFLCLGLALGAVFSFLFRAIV
# Test: [3H]adenosine uptake inhibition in HeLa cells
# Assay type: cell-based
# Conditions: read-out: Findings
structure (smiles),measurement,value
COCCOc1cnc2ccn([C@H](C)c3nnc4c(F)cc(-c5cnn(C)c5)cn34)c(=O)c2c1 [AMG 337],IC50,280 nM
